This passage reports Ki and EC50 results from patent US9994581B2, “Bromodomain inhibitors” (AbbVie Inc., priority 2013, dated 2018).

Where two headings read alike, the source gives them in different places.

One assay concerns the target BRD4 (BDI-BDII_K57-K550) (Homo sapiens, UniProt O60885). Nature of the assay: TR-FRET bromodomain binding assay. Conditions: His-tagged tandem bromodomain, Alexa647-labeled probe; Ki calculated from IC50s, probe Kd and probe concentration. The procedure:
A time-resolved fluorescence resonance energy transfer (TR-FRET) assay was used to determine the affinities of compounds of the Examples listed in Table 1 for the tandem domain of bromodomain BRD4. […] An Alexa647-labeled BET-inhibitor was used as the fluorescent probe in the assay.
TR-FRET data were normalized to the means of 24 no-compound controls (“high”) and 8 controls containing 1 μM un-labeled probe (“low”). Percent inhibition was plotted as a function of compound concentration and the data were fit with the 4 parameter logistic equation to obtain IC50s. Inhibition constants (Ki) were calculated from the IC50s, probe Kd and probe concentration. Typical Z′ values were between 0.65 and 0.75.

Assay [1] concerns breast cancer cell line MX-1. Briefly: MX-1 cell line proliferation assay (3-day, Cell Titer Glo). Type of assay: cell-based. The following applies: 72 hours, read-out: Cellular proliferation: EC50. The procedure:
The impact of compounds of the Examples on cancer cell proliferation was determined using the breast cancer cell line MX-1 (ATCC) in a 3-day proliferation assay and the data are reported in Table 1. […] For compound testing, MX-1 cells were plated in 96-well black bottom plates at a density of 5000 cells/well in 90 μL of culture media and incubated at 37° overnight to allow cell adhesion and spreading. Compound dilution series were prepared in DMSO via a 3-fold serial dilution from 3 mM to 0.1 μM. The DMSO dilution series were then diluted 1:100 in phosphate buffered saline, and 10 μL of the resulted solution were added to the appropriate wells of the MX-1 cell plate. The final compound concentrations in the wells were 3, 1, 0.3, 0.1, 0.03, 0.01, 0.003, 0.001, 0.0003, and 0.0001 μM, or 1, 0.3, 0.1, 0.03, 0.01, 0.003, 0.001, 0.0003, 0.0001, and 0.00003 μM.
Luminescence readings from the Cell Titer Glo assay were normalized to the DMSO treated cells and analyzed using the GraphPad Prism software with sigmoidal curve fitting to obtain EC50s.
(In general: ATP-based viability assays read luminescence as a measure of living cells.)

Regarding `Cn1cc2c(cc1=O)OCCOCc1cc(Cl)ccc1Oc1ccc(CS(C)(=O)=O)cc1-2` [Example B-17, 11-chloro-2-methyl-17-((methylsulfonyl)methyl)-6,7-dihydro-2H-dibenzo[6,7:9,10][1,4,8]trioxacyclododecino[11,12-c]pyridin-3(9H)-one], the Ki (in general, the equilibrium dissociation constant of an inhibitor or competing ligand from its target) on BRD4 (BDI-BDII_K57-K550) was 7.7 nM. The EC50 in assay [1] (Homo sapiens, MX1, MX-1 cells) was determined as 30.9 nM.
As to `Cn1cc2c(cc1=O)OCCCCc1cc(C(F)(F)F)ccc1Oc1ccc(NS(C)(=O)=O)cc1-2` [Example A-51, N-(2-methyl-3-oxo-11-(trifluoromethyl)-2,3,6,7,8,9-hexahydrodibenzo[4,5:7,8][1,6]dioxacyclododecino[3,2-c]pyridin-17-yl)methanesulfonamide], the Ki at BRD4 (BDI-BDII_K57-K550) is 1.72 nM. Moreover, the EC50 in assay [1] (Homo sapiens, MX1, MX-1 cells) turned out to be 14 nM.
Take `CCOC(=O)NS(=O)(=O)N1CCOc2cc(=O)n(C)cc2-c2cc(NS(=O)(=O)CC)ccc2Oc2ccc(Cl)cc2C1` [Example B-15, ethyl ({11-chloro-17-[(ethylsulfonyl)amino]-2-methyl-3-oxo-2,3,6,7-tetrahydrodibenzo[f,i]pyrido[3,4-k][1,8,4]dioxazacyclododecin-8(9H)-yl}sulfonyl)carbamate]: on BRD4 (BDI-BDII_K57-K550), the inhibitory constant (Ki) was 1 nM. Further, the EC50 in assay [1] (Homo sapiens, MX1, MX-1 cells) was 153 nM.
As for `CCS(=O)(=O)c1ccc2c(c1)-c1cn(C)c(=O)cc1OCCCCc1cccc(C)c1O2` [Example A-60, 17-(ethylsulfonyl)-2,13-dimethyl-6,7,8,9-tetrahydrodibenzo[4,5:7,8][1,6]dioxacyclododecino[3,2-c]pyridin-3(2H)-one], the Ki on BRD4 (BDI-BDII_K57-K550) was 5.8 nM. Besides, the EC50 in assay [1] (Homo sapiens, MX1, MX-1 cells) was determined as 1.16 nM.
The matching figures for `CCS(=O)(=O)Nc1ccc2c(c1)-c1nn(C)c(=O)cc1OCCCCc1cc(C#N)ccc1O2` [Example A-56, N-(11-cyano-2-methyl-3-oxo-2,3,6,7,8,9-hexahydrodibenzo[4,5:7,8][1,6]dioxacyclododecino[3,2-c]pyridazin-17-yl)ethanesulfonamide]: 3.99 nM and 16.9 nM.
The like results for `Cn1cc2c(cc1=O)OCCCCc1cc(Cl)ccc1Oc1ncccc1-2` [Example A-27, 11-chloro-2-methyl-6,7,8,9-tetrahydrobenzo[11,12][1,6]dioxacyclododecino[2,3-b:4,5-c′]dipyridin-3(2H)-one] were, in that order, 12.2 nM and 62.8 nM.
For `Cn1cc2c(cc1=O)OCCCCc1cc(F)cc(F)c1Oc1ncc(CS(C)(=O)=O)cc1-2` [Example A-43, 11,13-difluoro-2-methyl-17-((methylsulfonyl)methyl)-6,7,8,9-tetrahydrobenzo[11,12][1,6]dioxacyclododecino[2,3-b:4,5-c′]dipyridin-3(2H)-one], the Ki on BRD4 (BDI-BDII_K57-K550) is 3.82 nM. Besides, in assay [1] (Homo sapiens, MX1, MX-1 cells), the EC50 came to 10.7 nM.
The like results for `CCS(=O)(=O)Nc1ccc2c(c1)-c1cn(C)c(=O)cc1OCCN(CC1CC1)Cc1cc(Cl)ccc1O2` [Example B-12, N-[11-chloro-8-(cyclopropylmethyl)-2-methyl-3-oxo-2,3,6,7,8,9-hexahydrodibenzo[f,i]pyrido[3,4-k][1,8,4]dioxazacyclododecin-17-yl]ethanesulfonamide] were, in that order, 5.1 nM and 8.01 nM.
On to `CCS(=O)(=O)Nc1ccc2c(c1)-c1cn(C)c(=O)cc1OCCNCc1cc(Cl)ccc1O2` [Example B-11, N-(11-chloro-2-methyl-3-oxo-2,3,6,7,8,9-hexahydrodibenzo[f,i]pyrido[3,4-k][1,8,4]dioxazacyclododecin-17-yl)ethanesulfonamide], for which the inhibitory constant (Ki) at BRD4 (BDI-BDII_K57-K550) was 9.45 nM. In addition, the EC50 in assay [1] (Homo sapiens, MX1, MX-1 cells) was 25.1 nM.
The matching figures for `CCS(=O)(=O)Nc1ccc2c(c1)-c1nn(C)c(=O)cc1OCCCCc1cc(F)cc(F)c1O2` [Example A-58, N-(11,13-difluoro-2-methyl-3-oxo-2,3,6,7,8,9-hexahydrodibenzo[4,5:7,8][1,6]dioxacyclododecino[3,2-c]pyridazin-17-yl)ethanesulfonamide]: 2.01 nM and 18.4 nM.
The matching figures for `CCS(=O)(=O)Nc1ccc2c(c1)-c1cn(C)c(=O)cc1OCCCCc1ccc(Cl)cc1O2` [Example A-52, N-(12-chloro-2-methyl-3-oxo-2,3,6,7,8,9-hexahydrodibenzo[4,5:7,8][1,6]dioxacyclododecino[3,2-c]pyridin-17-yl)ethanesulfonamide]: 0.75 nM and 5.76 nM.
The matching figures for `CCS(=O)(=O)Nc1ccc2c(c1)-c1cn(C)c(=O)cc1OCC/C=C/c1cc(Cl)ccc1O2` [Example A-18, (E)-N-(11-chloro-2-methyl-3-oxo-2,3,6,7-tetrahydrodibenzo[4,5:7,8][1,6]dioxacyclododecino[3,2-c]pyridin-17-yl)ethanesulfonamide]: 4.06 nM and 8.87 nM.
As to `Cn1cc2c(cc1=O)OCCCCc1cc(C#N)ccc1Oc1ccc(NS(C)(=O)=O)cc1-2` [Example A-47, N-(11-cyano-2-methyl-3-oxo-2,3,6,7,8,9-hexahydrodibenzo[4,5:7,8][1,6]dioxacyclododecino[3,2-c]pyridin-17-yl)methanesulfonamide], the inhibitory constant (Ki) at BRD4 (BDI-BDII_K57-K550) is 3.68 nM. Besides, the EC50 in assay [1] (Homo sapiens, MX1, MX-1 cells) came out at 24.4 nM.
For `CCS(=O)(=O)c1ccc2c(c1)-c1cn(C)c(=O)cc1OCCc1ccccc1O2` [Example A-2, 3-(ethylsulfonyl)-6-methyl-10,11-dihydrodibenzo[4,5:7,8][1,6]dioxecino[3,2-c]pyridin-7(6H)-one], the inhibition constant Ki at BRD4 (BDI-BDII_K57-K550) was 234 nM. In addition, in assay [1] (MX-1 cells), the EC50 was found to be 709 nM.
Turning to `CCS(=O)(=O)c1cnc2c(c1)-c1cn(C)c(=O)cc1OCCCCc1cc(Cl)ccc1O2` [Example A-34, 11-chloro-17-(ethylsulfonyl)-2-methyl-6,7,8,9-tetrahydrobenzo[11,12][1,6]dioxacyclododecino[2,3-b:4,5-c′]dipyridin-3(2H)-one], on BRD4 (BDI-BDII_K57-K550), the Ki was 6.92 nM. Moreover, the EC50 in assay [1] (Homo sapiens, MX1, MX-1 cells) was 33.3 nM.
The matching figures for `CCS(=O)(=O)Nc1ccc2c(c1)-c1cn(C)c(=O)cc1OCCN(CCC(F)(F)F)Cc1cc(Cl)ccc1O2` [Example B-13, N-[11-chloro-2-methyl-3-oxo-8-(3,3,3-trifluoropropyl)-2,3,6,7,8,9-hexahydrodibenzo[f,i]pyrido[3,4-k][1,8,4]dioxazacyclododecin-17-yl]ethanesulfonamide]: 2.22 nM and 16.8 nM.
The matching figures for `CCS(=O)(=O)Nc1ccc2c(c1)-c1nn(C)c(=O)cc1OCCCCc1cc(Cl)ccc1O2` [Example A-55, N-(11-chloro-2-methyl-3-oxo-2,3,6,7,8,9-hexahydrodibenzo[4,5:7,8][1,6]dioxacyclododecino[3,2-c]pyridazin-17-yl)ethanesulfonamide]: 2.91 nM and 14.2 nM.
In the case of `Cn1cc2c(cc1=O)OCCCCc1cc(Cl)ccc1Oc1ncc(CS(C)(=O)=O)cc1-2` [Example A-40, 11-chloro-2-methyl-17-((methylsulfonyl)methyl)-6,7,8,9-tetrahydrobenzo[11,12][1,6]dioxacyclododecino[2,3-b:4,5-c′]dipyridin-3(2H)-one], the inhibitory constant (Ki) on BRD4 (BDI-BDII_K57-K550) is 6.09 nM. Besides, the EC50 in assay [1] (Homo sapiens, MX1, MX-1 cells) is 23.7 nM.
The like results for `CCNC(=O)Nc1ccc2c(c1)-c1cn(C)c(=O)cc1OCCCc1cc(Cl)ccc1O2` [Example A-10, 1-(10-chloro-2-methyl-3-oxo-3,6,7,8-tetrahydro-2H-dibenzo[4,5:7,8][1,6]dioxacycloundecino[3,2-c]pyridin-16-yl)-3-ethylurea] were, in that order, 35.2 nM and 347 nM.
